Among the test systems are SW-620 colon; EKVX NSCLC; CAKI-1 renal; SR leukemia; A498 renal; MDA-N; NCI-H522 lung; K-562 leukemia; CCRF-CEM leukemia; T-47D breast; SNB-19 CNS; LOX IMVI melanoma; UACC-257 melanoma; BT-549 breast; MCF7 breast; SN12C renal; PC-3 prostate; HS 578T breast.
What all share (assay): inhibition of tumour cell growth, NCI panel, 48 h

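Five compound concentrations were applied to cells in 96-well plates for 48 hours; endpoints were derived by simple linear interpolation of the resulting dose-response curve. TGI denotes the concentration required for complete inhibition of growth.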

Among the data in PubChem BioAssay (NCI) are TGI values, retold here.

Take `C[C@H](CCC(=O)O)[C@H]1CC[C@H]2[C@@H]3C(=O)C[C@@H]4C[C@H](O)CC[C@]4(C)[C@H]3C[C@H](O)[C@]12C`: the TGI in the assay on SW-620 colon, with EKVX NSCLC, with CAKI-1 renal, with SR leukemia, with A498 renal and with MDA-N was above 100 µM in each case. For the same compound, the TGI in the assay on NCI-H522 lung, in the assay with K-562 leukemia, in the assay with CCRF-CEM leukemia, with T-47D breast, with SNB-19 CNS and with LOX IMVI melanoma was above 100 µM each time. For the same compound, the TGI in the assay with UACC-257 melanoma was above 100 µM; in the assay with BT-549 breast, above 100 µM; with MCF7 breast it was above 100 µM; in the assay on SN12C renal, above 100 µM; in the assay with PC-3 prostate it was above 100 µM; in the assay with HS 578T breast, 78.9 µM.
Take `Cc1nc(C)c(N2CCN([N+](=O)[O-])CC2)c(=O)[nH]1`: the TGI with SW-620 colon, in the assay with EKVX NSCLC, with CAKI-1 renal, with SR leukemia, in the assay with A498 renal and in the assay with MDA-N was above 100 µM in each case. Further, the TGI with NCI-H522 lung, in the assay on K-562 leukemia, with CCRF-CEM leukemia, with T-47D breast, in the assay on SNB-19 CNS and in the assay with LOX IMVI melanoma was above 100 µM in each case. Moreover, the TGI in the assay on UACC-257 melanoma, in the assay with BT-549 breast, in the assay with MCF7 breast, in the assay with SN12C renal, with PC-3 prostate and in the assay with HS 578T breast was above 100 µM each time.
Regarding `CCOC(=O)c1cccc(N=Nc2nc[nH]c2/C=C/C(=O)OC)c1`, the TGI was above 100 µM in the assay on SW-620 colon; above 100 µM with EKVX NSCLC; above 100 µM in the assay with CAKI-1 renal; 12 µM in the assay with SR leukemia; 66.8 µM in the assay with A498 renal; above 100 µM in the assay on MDA-N. Moreover, the TGI in the assay with NCI-H522 lung, with K-562 leukemia, in the assay with CCRF-CEM leukemia, with T-47D breast, in the assay on SNB-19 CNS and in the assay on LOX IMVI melanoma was above 100 µM throughout. Besides, the TGI in the assay on UACC-257 melanoma was 60.4 µM; in the assay with BT-549 breast it was above 100 µM; in the assay on MCF7 breast, above 100 µM; with SN12C renal, 68.1 µM; in the assay with PC-3 prostate it was above 100 µM; with HS 578T breast, above 100 µM.
Take `C/C(=N\N=C1/C(=O)OC(c2ccccc2)=C1C(=O)c1ccccc1)c1ccc([N+](=O)[O-])cc1`: the TGI in the assay with SW-620 colon is above 100 µM; in the assay with EKVX NSCLC, above 100 µM; in the assay with CAKI-1 renal, above 100 µM; in the assay with SR leukemia, 34.6 µM; in the assay on A498 renal, above 100 µM; in the assay on MDA-N, above 100 µM. For the same compound, the TGI in the assay with NCI-H522 lung is 83.5 µM; with K-562 leukemia, above 100 µM; with CCRF-CEM leukemia, 75.1 µM; in the assay with T-47D breast it was above 100 µM; in the assay with SNB-19 CNS, above 100 µM; in the assay on LOX IMVI melanoma it was above 100 µM. For the same compound, the TGI is above 100 µM with UACC-257 melanoma; 72.6 µM in the assay on BT-549 breast; above 100 µM in the assay with MCF7 breast; above 100 µM with SN12C renal; above 100 µM in the assay on PC-3 prostate; above 100 µM in the assay on HS 578T breast.
As to `O=C(O)CCNc1ncnc2nc[nH]c12`, the TGI with SW-620 colon, with EKVX NSCLC, with CAKI-1 renal, with SR leukemia, with A498 renal and with MDA-N was above 100 µM throughout. The TGI in the assay with NCI-H522 lung, with K-562 leukemia, in the assay on CCRF-CEM leukemia, with T-47D breast, in the assay on SNB-19 CNS and in the assay on LOX IMVI melanoma was above 100 µM throughout. The TGI in the assay with UACC-257 melanoma, in the assay on BT-549 breast, in the assay on MCF7 breast, in the assay with SN12C renal, in the assay with PC-3 prostate and in the assay on HS 578T breast was above 100 µM throughout.
With `CC1(C)OC[C@@H](O)[C@H](C#N)CO1`, the TGI with SW-620 colon, in the assay with EKVX NSCLC, in the assay with CAKI-1 renal, in the assay on SR leukemia, with A498 renal and in the assay with MDA-N was above 100 µM each time. The TGI in the assay on NCI-H522 lung, in the assay on K-562 leukemia, in the assay with CCRF-CEM leukemia, with T-47D breast, in the assay on SNB-19 CNS and with LOX IMVI melanoma was above 100 µM each time. Further, the TGI in the assay with UACC-257 melanoma, with BT-549 breast, in the assay on MCF7 breast, in the assay with SN12C renal, with PC-3 prostate and with HS 578T breast was above 100 µM in each case.
With `O=c1[nH][nH]c(=O)n1CCCCCCn1c(=O)[nH][nH]c1=O`, the TGI in the assay with SW-620 colon, in the assay with EKVX NSCLC, with CAKI-1 renal, in the assay on SR leukemia, with A498 renal and in the assay with MDA-N was above 100 µM each time. The TGI in the assay on NCI-H522 lung, in the assay with K-562 leukemia, in the assay on CCRF-CEM leukemia, in the assay on T-47D breast, in the assay on SNB-19 CNS and with LOX IMVI melanoma was above 100 µM each time. Also, the TGI with UACC-257 melanoma, in the assay with BT-549 breast, with MCF7 breast, in the assay on SN12C renal, in the assay with PC-3 prostate and with HS 578T breast was above 100 µM in each case.
In the case of `Cc1c2cc[n+](C)c(C)c2cc2c1[nH]c1ccccc12`, the TGI in the assay with SW-620 colon was above 95.1 µM; in the assay on EKVX NSCLC it was 42.7 µM; in the assay on CAKI-1 renal, above 91.9 µM; in the assay with SR leukemia, above 100 µM; with A498 renal, above 100 µM; with MDA-N it was above 93.8 µM. The TGI in the assay with NCI-H522 lung was 18.2 µM; with K-562 leukemia, 61.3 µM; in the assay on CCRF-CEM leukemia it was 75.3 µM; in the assay on T-47D breast it was 10.4 µM; with SNB-19 CNS it was 7.22 µM; with LOX IMVI melanoma, above 92.2 µM. Also, the TGI in the assay on UACC-257 melanoma was 65.8 µM; with BT-549 breast, 18.9 µM; with MCF7 breast it was 70.1 µM; in the assay with SN12C renal it was 8.54 µM; with PC-3 prostate, above 100 µM; in the assay with HS 578T breast, 7.54 µM.
Consider `CC(C)SC(=S)Sc1c(Cl)c(Cl)nc(Cl)c1Cl`, for which the TGI with SW-620 colon is 15.9 µM; with EKVX NSCLC, 22.8 µM; in the assay with CAKI-1 renal, 8.49 µM; in the assay with SR leukemia, 11.3 µM; in the assay with A498 renal it was 31.5 µM; with MDA-N it was 11.1 µM. Moreover, the TGI came out at 11.6 µM in the assay with NCI-H522 lung; 10.7 µM in the assay with K-562 leukemia; 6.09 µM in the assay on CCRF-CEM leukemia; 4.39 µM in the assay on T-47D breast; 21.1 µM in the assay on SNB-19 CNS; 6.68 µM with LOX IMVI melanoma. The TGI in the assay on UACC-257 melanoma was found to be 9.57 µM; in the assay on BT-549 breast it was 34.2 µM; in the assay with MCF7 breast, 15.7 µM; with SN12C renal it was 27.6 µM; with PC-3 prostate it was 16 µM; with HS 578T breast, 44.7 µM.
